A short description of data set [1]: Caco-2 permeability testing. The settings on record: human; for Papp A→B at 90 min, 10 µM: Caco-2, pH 7.4, Caco-2, A-B, read-out: Permeability (second figure of Efflux/permeability), Papp (A-B); for Papp B→A at 90 min, 10 µM: Caco-2, pH 7.4, Caco-2, B-A, read-out: Efflux (first figure of Efflux/permeability), Papp (B-A); for efflux ratio at 90 min, 10 µM: pH 7.4, Caco-2, Papp (B-A)/Papp (A-B), read-out: Efflux/Permeability ratio (desired <3). The class given is in vitro ADME, human. The source says: Intestinal epithelium permeability is a critical characteristic that determines the rate and extent of human absorption and affects bioavailability of a drug candidate. Poor intestinal permeability leads to limited absorption. Generally, higher absorption is preferred. The Caco-2 cell line is a human colon adeno-carcinoma cell line that resembles the epithelial lining of the human small intestine. Several transport proteins that are expressed in human intestinal epithelium are also expressed in the Caco-2 cell model. Some transporter proteins are efflux systems which mediate the secretion of compounds from inside the cell back to the apical lumen (representative of the intestinal lumen), limiting overall absorption. In a permeability assay, the apparent permeability coefficient is measured between the apical to basolateral sides of a cell monolayer, Papp (A-B), and the basolateral to the apical side, Papp (B-A). Papp (A-B)<2×10^−6 cm/s is predictive of low permeability to the basolateral side, 2×10^−6 cm/s<Papp (A-B)<20×10^−6 cm/s is predictive of medium permeability, and Papp (A-B)>20×10^−6 cm/s is predictive of high permeability. In the B-A permeability assay, Papp (B-A) is measured and compounds evaluated for efflux potential. Together, these assay results are reported as a ratio of Papp (B-A) to Papp (A-B). Papp (B-A)/Papp (A-B)>3 are likely to be transported by one of the efflux systems, and have poor absorption. Papp (B-A)/Papp (A-B)<3 are likely to show reasonable intestinal absorption. An in vitro drug absorption assay suitable for use in predicting intestinal absorption of the compounds useful in the methods of the invention is described in this example. The embodiments of this assay described in this example were developed by Shanghai ChemPartner Co., Ltd., a corporation of China with its principal office located at 720 Cailun Road, Building No. 3, Shanghai 201203, China.
Caco-2 (ATCC, catalog No. HTB-37™) cells are cultured in growth medium (MEM+10% FBS+1% NEAA). The growth medium is prepared by adding 50 mL FBS and 5 mL NEAA to 445 mL of MEM or by adjusting the final volume according to actual needs. Trypsin-EDTA (Invitrogen, Cat #25200-072) is also used.
Hanks Balanced Salt Solution (HBSS, Invitrogen, Cat #14025-092) with 25 mM HEPES, pH 7.4, HBSS buffer with 0.2% DMSO (50 μL DMSO into 25 ml HBSS buffer), and HBSS buffer with 0.4% DMSO (100 μL DMSO into 25 ml HBSS buffer) are used.
10 mM stock solutions of a compound is prepared in DMSO and Lucifer Yellow in assay buffer using the formula (Actual Weight/Molecular Weight)/mL solvent=10 mM. Erythromycin, Metoprolol, and Atenolol are used as reference compounds. Donor solutions (10 μM for compounds and 5 μM for Lucifer Yellow) are prepared. For A-B, 4 μL of 10 mM compound stock solution and 2 μL of 10 mM Lucifer Yellow stock solution are loaded into 4 mL of HBSS buffer, and centrifuged (5 min, 4000 rpm) to precipitate undissolved particles. Supernatants are collected for compound dosing. For B-A, 4 μL (compounds) of 10 mM compound stock solution is added to 4 mL HBSS buffer with 0.2% DMSO, and centrifuged (5 min, 4000 rpm) to precipitate undissolved particles. Supernatants are collected for compound dosing.
Receiver solutions are prepared. For A-B, the solution is HBSS buffer with 0.4% DMSO. For B-A, 2 μL of 10 mM Lucifer Yellow stock solution is added to 4 mL of HBSS buffer with 0.2% DMSO. Compound solutions are prepared for standard curve (3 μM/1 μM/0.2 μM/0.04 μM/0.01 μM/0.005 μM):
1× solution: 3 μL of 20× solution (0.1-60 μM)+57 μL 0.4% DMSO HBSS+60 μL acetonitrile (ACN) with internal standard (IS, 200 ng/mL Osalmid). The assay was performed as described below
Stock cultures are maintained in MEM+10% FBS+1% NEAA, grown in 75 cm^2 tissue culture treated flasks and split (passed) 2 times weekly to maintain desired confluence. For maintenance passage, trypsinized cells are routinely distributed into new flasks at a standard passage ratio of 1:4. […]

A short description of data set [2]: Liver microsome stability, human. It is filed as in vitro ADME. The settings on record: for liver stability predicted by in vitro PK profiles: human vs rat liver, in words. The text has this: (§1) Metabolic stability assays are designed to measure the stability of a test compound in a variety of assay matrices from human and animal species. From a metabolism perspective, a drug would be relatively stable, have a small first-pass effect, and maintain an effective concentration in blood for a reasonable period of time. A microsomal preparation from the liver contains all CYP isozymes and other membrane-bound drug metabolizing enzymes which are responsible for the metabolism for the majority of drugs in humans. Metabolic stability in liver microsomes can determine half-life (T1/2) and intrinsic clearance (Clint). The determination of Clint may be useful to determine whether metabolism is the major elimination pathway when it is compared to total body clearance in vivo. For high metabolic stability in liver microsomes: […] Human, Sprague Dawley rat, and CD-1 mouse liver microsome samples were purchased from BD Gentest. An in vitro metabolic stability assay suitable for use in predicting first pass metabolism of the compounds useful in the methods of the invention is described in this example. […] 6 mM NADPH in 0.1 M K-phosphate buffer is prepared by dissolving 25.1 mg of NADPH tetrasodium salt in 5 mL of K-phosphate buffer. […] The plate is pre-incubated at 37° C. for 10 minutes. 15 μL of NADPH stock solution (6 mM) is added to the wells designated for Time 60 and timed. At 30 min, 15 min, and 5 min, 15 μL of NADPH stock solution (6 mM) is added to the wells. At the end of incubation, 135 μL of ACN containing IS is added to all the wells (60 min, 30 min, 15 min, 5 min and 0 min). Then 15 μL of NADPH stock solution (6 mM) is added to the wells designated as Time 0.

A short description of data set [3]: Liver microsome stability, mouse. The class given is in vitro ADME, CD-1 mouse.
Description: as §1

Data set [4] is described as follows: Liver microsome stability, rat. It is filed as in vitro ADME, Sprague Dawley rat.
Description: as §1

For `Cn1nc(C(=O)NC2CCNCC2)c2ccc(N3CCCCCC3)nc21.O=C(O)C(F)(F)F.O=C(O)C(F)(F)F` [compound 697], the Papp A→B at 90 min, 10 µM in data set [1] was 5.5 ×10⁻⁶ cm/s. The Papp B→A at 90 min, 10 µM in data set [1] is 48 ×10⁻⁶ cm/s. Further, the “human liver microsome (HLM, % parent remaining)” value is recorded as 96 % parent remaining in data set [2] (after 15 min), 109 % parent remaining in data set [2] (after 30 min) and 108 % parent remaining in data set [2] (after 60 min). Moreover, the “mouse liver microsome (MLM), % parent remaining” value in data set [3] (after 15 min) was determined as 85 % parent remaining; in data set [3] (after 30 min), 74 % parent remaining; in data set [3] (after 60 min), 44 % parent remaining. Also, the “rat liver microsome (RLM), % parent remaining” value in data set [4] (after 15 min) is given as 69 % parent remaining; in data set [4] (after 30 min), 42 % parent remaining; in data set [4] (after 60 min), 13 % parent remaining.
Consider `Cn1nc(C(=O)NC2CCN(CCN3CCCC3)CC2)c2ccc(N3CCCCCC3)nc21` [compound 1597], for which the Papp A→B at 90 min, 10 µM in data set [1] came out at 9.2 ×10⁻⁶ cm/s. The Papp B→A at 90 min, 10 µM in data set [1] was 6.5 ×10⁻⁶ cm/s. Also, the “human liver microsome (HLM, % parent remaining)” value in data set [2] (after 15 min) is recorded as 81 % parent remaining; in data set [2] (after 30 min) it was 74 % parent remaining; in data set [2] (after 60 min), 58 % parent remaining. Further, the “mouse liver microsome (MLM), % parent remaining” value is recorded as 67 % parent remaining in data set [3] (after 15 min), 32 % parent remaining in data set [3] (after 30 min) and 14 % parent remaining in data set [3] (after 60 min). The figures for the “rat liver microsome (RLM), % parent remaining” value in data set [4] (after 15 min), in data set [4] (after 30 min) and in data set [4] (after 60 min) were 57 % parent remaining, 25 % parent remaining and 14 % parent remaining, respectively.
Regarding `CCC(CC)Oc1ccc2c(COCC3CCCNC3)nn(Cc3ccc(Cl)cc3)c2n1.O=C(O)C(F)(F)F` (stereo not shown) [compound 755], in data set [1], the Papp A→B at 90 min, 10 µM stood at 0.4 ×10⁻⁶ cm/s and the Papp B→A at 90 min, 10 µM was found to be 0.2 ×10⁻⁶ cm/s.
As to `Cn1nc(C(=O)NC2CCN(CCN3CCCC3)CC2)c2ccc(N3CCCCCC3)nc21` [EBP1597], the efflux ratio at 90 min, 10 µM in data set [1] is 0.8. The “human liver microsome (HLM, % parent remaining)” value in data set [2] (after 15 min) amounted to 81 % parent remaining; in data set [2] (after 30 min) it was 74 % parent remaining; in data set [2] (after 60 min), 57 % parent remaining. Besides, the “liver stability predicted by in vitro PK profiles” value (“liver stability predicted” below) in data set [2] is given as “higher stability in human liver vs rat liver”. Besides, the “mouse liver microsome (MLM), % parent remaining” value in data set [3] (after 15 min) is 67 % parent remaining; in data set [3] (after 30 min) it was 32 % parent remaining; in data set [3] (after 60 min), 14 % parent remaining. Besides, the “rat liver microsome (RLM), % parent remaining” value turned out to be 57 % parent remaining in data set [4] (after 15 min), 24 % parent remaining in data set [4] (after 30 min) and 15 % parent remaining in data set [4] (after 60 min).
Turning to `CC(C)N1CCC(NC(=O)c2nn(C)c3nc(N4CCCCCC4)ccc23)CC1` [EBP1604], the Papp A→B at 90 min, 10 µM in data set [1] was determined as 12 ×10⁻⁶ cm/s. Besides, the Papp B→A at 90 min, 10 µM in data set [1] was found to be 9 ×10⁻⁶ cm/s. For the same molecule, in data set [1], the efflux ratio at 90 min, 10 µM is 0.8. For the same molecule, the “human liver microsome (HLM, % parent remaining)” value was 71 % parent remaining in data set [2] (after 15 min), 63 % parent remaining in data set [2] (after 30 min) and 28 % parent remaining in data set [2] (after 60 min). For the same molecule, in data set [2], the “liver stability predicted” value is given as “higher stability in human liver vs rat liver”. Further, the “mouse liver microsome (MLM), % parent remaining” value in data set [3] (after 15 min) came out at 57 % parent remaining; in data set [3] (after 30 min) it was 40 % parent remaining; in data set [3] (after 60 min) it was 14 % parent remaining. The “rat liver microsome (RLM), % parent remaining” value in data set [4] (after 15 min) turned out to be 58 % parent remaining; in data set [4] (after 30 min) it was 41 % parent remaining; in data set [4] (after 60 min) it was 14 % parent remaining.
With `O=C(NC1CCNCC1)c1nn(C(=O)C2CCCCC2)c2nc(N3CCCCCC3)ccc12.O=C(O)C(F)(F)F.O=C(O)C(F)(F)F.O=C(O)C(F)(F)F` [compound 989], in data set [1], the Papp A→B at 90 min, 10 µM stood at 5 ×10⁻⁶ cm/s and the Papp B→A at 90 min, 10 µM came to 3 ×10⁻⁶ cm/s.
In the case of `Cn1nc(C(=O)NC2CCN(CCN3CCCCC3)CC2)c2ccc(N3CCCCCC3)nc21` [EBP1047], the “human liver microsome (HLM, % parent remaining)” value in data set [2] (after 15 min) is listed as 78 % parent remaining; in data set [2] (after 30 min) it was 62 % parent remaining; in data set [2] (after 60 min) it was 34 % parent remaining. For the same molecule, in data set [2], the “liver stability predicted” value is recorded as “higher stability in human liver vs rat liver”. The “mouse liver microsome (MLM), % parent remaining” value in data set [3] (after 15 min) was found to be 56 % parent remaining; in data set [3] (after 30 min), 29 % parent remaining; in data set [3] (after 60 min), 12 % parent remaining. Besides, the “rat liver microsome (RLM), % parent remaining” value in data set [4] (after 15 min) was 44 % parent remaining; in data set [4] (after 30 min), 18 % parent remaining; in data set [4] (after 60 min), 10 % parent remaining.
As for `Cn1nc(C(=O)NC2CCN(CC3CCCCC3)CC2)c2ccc(N3CCCCCCC3)nc21` [compound 1062], in data set [1], the Papp A→B at 90 min, 10 µM was 1.7 ×10⁻⁶ cm/s and the Papp B→A at 90 min, 10 µM came to 0.6 ×10⁻⁶ cm/s.
On the same counts, the results for `Clc1ccc(Cn2nc(COCCCN3CCCCC3)c3ccc(N4CCCCCC4)nc32)cc1` [compound 749] are 0.44 ×10⁻⁶ cm/s and 0.52 ×10⁻⁶ cm/s.

The values above are taken from US20120232062A1, “AZAINDAZOLES TO TREAT FLAVIVIRIDAE VIRUS INFECTION” (EIGER BIOPHARMACEUTICALS, INC., priority 2009, published 2012).
